In PubChem BioAssay AID2060499 (Molecular Pharmacology Branch, DTP, NCI, 2025):

Tested on: 777334-354-R2-J4-PDC tumor spheroids with HUVEC/MSC, viability
Test: Anticancer human tumor 777334-354-R2-J4-PDC patient-derived pancreatic adenocarcinoma cell line growth inhibition [GQUAD]
Settings: for IC50: curve of first compound; for viability, T/C: stronger effect = lower value
Method in brief: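 Viability of tumor cells grown as complex spheroids with endothelial and stromal cells, exposed to drug combinations. Top concentration at or near clinical Cmax (else 10 microM), diluted in half-log increments.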

[1] = second compound 0.0316 µM, first compound 0.0316 µM
[2] = second compound 0.0316 µM, first compound 0.1 µM
[3] = second compound 0.0316 µM, first compound 0.316 µM
[4] = second compound 0.0316 µM, first compound 1 µM
[5] = second compound 0.0316 µM, first compound 3.16 µM
[6] = second compound 0.0316 µM, first compound 10 µM
[7] = second compound 0.1 µM, first compound 0.0316 µM
[8] = second compound 0.1 µM, first compound 0.1 µM
[9] = second compound 0.1 µM, first compound 0.316 µM
[10] = second compound 0.1 µM, first compound 1 µM
[11] = second compound 0.1 µM, first compound 3.16 µM
[12] = second compound 0.1 µM, first compound 10 µM
[13] = second compound 0.316 µM, first compound 0.0316 µM
[14] = second compound 0.316 µM, first compound 0.1 µM
[15] = second compound 0.316 µM, first compound 0.316 µM
[16] = second compound 0.316 µM, first compound 1 µM
[17] = second compound 0.316 µM, first compound 3.16 µM
[18] = second compound 0.316 µM, first compound 10 µM
[19] = second compound 1 µM, first compound 0.0316 µM
[20] = second compound 1 µM, first compound 0.1 µM
[21] = second compound 1 µM, first compound 0.316 µM
[22] = second compound 1 µM, first compound 1 µM
[23] = second compound 1 µM, first compound 3.16 µM
[24] = second compound 1 µM, first compound 10 µM
[25] = second compound 3.16 µM, first compound 0.0316 µM
[26] = second compound 3.16 µM, first compound 0.1 µM
[27] = second compound 3.16 µM, first compound 0.316 µM
[28] = second compound 3.16 µM, first compound 1 µM
[29] = second compound 3.16 µM, first compound 3.16 µM
[30] = second compound 3.16 µM, first compound 10 µM
[31] = second compound 10 µM, first compound 0.0316 µM
[32] = second compound 10 µM, first compound 0.1 µM
[33] = second compound 10 µM, first compound 0.316 µM
[34] = second compound 10 µM, first compound 1 µM
[35] = second compound 10 µM, first compound 3.16 µM
[36] = second compound 10 µM, first compound 10 µM
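Note: spheroids exposed to compounds for 7 days before readout.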

Structure (SMILES): CC1COCCN1c1cc(C2(S(C)(=N)=O)CC2)nc(-c2ccnc3[nH]ccc23)n1 (centres undefined) + Cc1[nH]c2ccc(F)cc2c1-c1nc2c3cccnc3c3ncccc3c2[nH]1
- IC50 (second compound 0.0316 µM): > 10 µM
- IC50 (second compound 0.1 µM): > 10 µM
- IC50 (second compound 0.316 µM): > 10 µM
- IC50 (second compound 1 µM): 7.07 µM
- IC50 (second compound 3.16 µM): < 0.0316 µM
- IC50 (second compound 10 µM): < 0.0316 µM
- viability, T/C [1]: 109%
- viability, T/C [2]: 98.9%
- viability, T/C [3]: 108%
- viability, T/C [4]: 100%
- viability, T/C [5]: 87.7%
- viability, T/C [6]: 62.2%
- viability, T/C [7]: 113%
- viability, T/C [8]: 92.7%
- viability, T/C [9]: 118%
- viability, T/C [10]: 85.8%
- viability, T/C [11]: 94.5%
- viability, T/C [12]: 74.8%
- viability, T/C [13]: 94.8%
- viability, T/C [14]: 97.7%
- viability, T/C [15]: 88.3%
- viability, T/C [16]: 96.2%
- viability, T/C [17]: 89.9%
- viability, T/C [18]: 56%
- viability, T/C [19]: 88.7%
- viability, T/C [20]: 93.8%
- viability, T/C [21]: 87.1%
- viability, T/C [22]: 75.5%
- viability, T/C [23]: 67.9%
- viability, T/C [24]: 42.7%
- viability, T/C [25]: 41.8%
- viability, T/C [26]: 27.1%
- viability, T/C [27]: 35%
- viability, T/C [28]: 22.8%
- viability, T/C [29]: 25.8%
- viability, T/C [30]: 12%
- viability, T/C [31]: 36%
- viability, T/C [32]: 29.2%
- viability, T/C [33]: 29.6%
- viability, T/C [34]: 18.9%
- viability, T/C [35]: 20.7%
- viability, T/C [36]: 11.1%

Structure (SMILES): COc1ccc([C@@H](O)c2cc(-c3ncnc4cc(N5CCOCC5)ccc34)c(F)cc2Cl)nn1 + Cc1[nH]c2ccc(F)cc2c1-c1nc2c3cccnc3c3ncccc3c2[nH]1
- IC50 (second compound 0.0316 µM): 3.89 µM
- IC50 (second compound 0.1 µM): 3.88 µM
- IC50 (second compound 0.316 µM): 3.44 µM
- IC50 (second compound 1 µM): 1.89 µM
- IC50 (second compound 3.16 µM): < 0.0316 µM
- IC50 (second compound 10 µM): < 0.0316 µM
- viability, T/C [1]: 102%
- viability, T/C [2]: 91%
- viability, T/C [3]: 95%
- viability, T/C [4]: 76%
- viability, T/C [5]: 54.5%
- viability, T/C [6]: 30.3%
- viability, T/C [7]: 110%
- viability, T/C [8]: 98.8%
- viability, T/C [9]: 93%
- viability, T/C [10]: 71%
- viability, T/C [11]: 55.4%
- viability, T/C [12]: 30.5%
- viability, T/C [13]: 92.8%
- viability, T/C [14]: 92.9%
- viability, T/C [15]: 88.2%
- viability, T/C [16]: 80.3%
- viability, T/C [17]: 51.4%
- viability, T/C [18]: 28.9%
- viability, T/C [19]: 79.9%
- viability, T/C [20]: 89.9%
- viability, T/C [21]: 76.8%
- viability, T/C [22]: 61.8%
- viability, T/C [23]: 40.6%
- viability, T/C [24]: 22.2%
- viability, T/C [25]: 46.1%
- viability, T/C [26]: 43.4%
- viability, T/C [27]: 36.7%
- viability, T/C [28]: 17.7%
- viability, T/C [29]: 13.6%
- viability, T/C [30]: 9.99%
- viability, T/C [31]: 35.4%
- viability, T/C [32]: 29.1%
- viability, T/C [33]: 27.8%
- viability, T/C [34]: 15.2%
- viability, T/C [35]: 13%
- viability, T/C [36]: 12.6%
